According to ChEMBL document CHEMBL3769346, “Synthesis and SAR of calcitonin gene-related peptide (CGRP) antagonists containing substituted aryl-piperazines and piperidines” (Bioorg Med Chem Lett, 2016):
Calls of active or inactive are those of the source. The rule behind the calls is not given here.

Target: CGRP receptor (CALCRL/RAMP1) (Homo sapiens)
Test: Displacement of [125I]CGRP from CGRP receptor in human SK-N-MC cells after 2 hrs by scintillation counter
Conditions: not given

Row | Structure (SMILES) | IC50 [nM]
1 | Cc1cc(C[C@@H](NC(=O)N2CCC(c3cc4ccccc4cc3Cl)CC2)C(=O)N2CCC(N3CCCCC3)CC2)cc2cn[nH]c12 | 0.23
2 | Cc1cc(C[C@@H](NC(=O)N2CCN(c3ccc(F)c(F)c3)CC2)C(=O)N2CCC(N3CCCCC3)CC2)cc2cn[nH]c12 | 97
3 | Cc1cc(C[C@@H](NC(=O)N2CCN(c3ccc(C#N)cc3)CC2)C(=O)N2CCC(N3CCCCC3)CC2)cc2cn[nH]c12 | 99
4 | Cc1cc(C[C@@H](NC(=O)N2CCC(c3ccc(Cl)cc3Cl)CC2)C(=O)N2CCC(N3CCCCC3)CC2)cc2cn[nH]c12 | 1.1
5 | Cc1cc(C[C@@H](NC(=O)N2CCN(c3ccc(S(C)(=O)=O)cc3Cl)CC2)C(=O)N2CCC(N3CCCCC3)CC2)cc2cn[nH]c12 | 7
6 | Cc1cc(C[C@@H](NC(=O)N2CCN(c3ccc(Cl)c(Cl)c3)CC2)C(=O)N2CCC(N3CCCCC3)CC2)cc2cn[nH]c12 | 12
7 | Cc1cc(C[C@@H](NC(=O)N2CCN(c3ccc(Cl)cc3Cl)CC2)C(=O)N2CCC(N3CCCCC3)CC2)cc2cn[nH]c12 | 4.3
8 | Cc1cc(C[C@@H](NC(=O)N2CCN(c3ccc(S(C)(=O)=O)cc3F)CC2)C(=O)N2CCC(N3CCCCC3)CC2)cc2cn[nH]c12 | 34
9 | Cc1cc(C[C@@H](NC(=O)N2CCN(c3ccc(F)cc3S(C)(=O)=O)CC2)C(=O)N2CCC(N3CCCCC3)CC2)cc2cn[nH]c12 | 2.9
10 | Cc1ccccc1C1CCN(C(=O)N[C@H](Cc2cc(C)c3[nH]ncc3c2)C(=O)N2CCC(N3CCCCC3)CC2)CC1 | 170
11 | Cc1cc(C[C@@H](NC(=O)N2CCC(c3ccccc3Cl)CC2)C(=O)N2CCC(N3CCCCC3)CC2)cc2cn[nH]c12 | 9.8
12 | Cc1cccc(C2CCN(C(=O)N[C@H](Cc3cc(C)c4[nH]ncc4c3)C(=O)N3CCC(N4CCCCC4)CC3)CC2)c1F | 120
13 | Cc1cc(C[C@@H](NC(=O)N2CCC(c3cc4ccccc4cc3C#N)CC2)C(=O)N2CCC(N3CCCCC3)CC2)cc2cn[nH]c12 | 0.11

Second part, the compound after the results:

Row | IC50 [nM] | Structure (SMILES)
14 | 44 | CCOC(=O)c1ccc(N2CCN(C(=O)N[C@H](Cc3cc(C)c4[nH]ncc4c3)C(=O)N3CCC(N4CCCCC4)CC3)CC2)cc1
15 | 110 | COC(=O)c1ccccc1N1CCN(C(=O)N[C@H](Cc2cc(C)c3[nH]ncc3c2)C(=O)N2CCC(N3CCCCC3)CC2)CC1
16 | 46 | Cc1cc(C[C@@H](NC(=O)N2CCN(c3ccc(-c4ccccc4)cc3)CC2)C(=O)N2CCC(N3CCCCC3)CC2)cc2cn[nH]c12
17 | 130 | Cc1cc(C[C@@H](NC(=O)N2CCC(c3cccc(Br)c3)CC2)C(=O)N2CCC(N3CCCCC3)CC2)cc2cn[nH]c12
18 | 170 | Cc1cc(C[C@@H](NC(=O)N2CCC(c3ccccc3F)CC2)C(=O)N2CCC(N3CCCCC3)CC2)cc2cn[nH]c12
19 | 240 | Cc1ccc(C2CCN(C(=O)N[C@H](Cc3cc(C)c4[nH]ncc4c3)C(=O)N3CCC(N4CCCCC4)CC3)CC2)cc1
20 | 41 | Cc1cc(C[C@@H](NC(=O)N2CCC(c3ccc(Cl)cc3)CC2)C(=O)N2CCC(N3CCCCC3)CC2)cc2cn[nH]c12
21 | 8.9 | Cc1cc(C[C@@H](NC(=O)N2CCN(c3ccccc3C#N)CC2)C(=O)N2CCC(N3CCCCC3)CC2)cc2cn[nH]c12
22 | 130 | Cc1cc(C[C@@H](NC(=O)N2CCN(c3ccccc3F)CC2)C(=O)N2CCC(N3CCCCC3)CC2)cc2cn[nH]c12
23 | 77 | Cc1cc(C[C@@H](NC(=O)N2CCN(c3ccc(Cl)cc3)CC2)C(=O)N2CCC(N3CCCCC3)CC2)cc2cn[nH]c12
24 | 19 | Cc1cc(C[C@@H](NC(=O)N2CCN(c3cccc(Cl)c3)CC2)C(=O)N2CCC(N3CCCCC3)CC2)cc2cn[nH]c12
25 | 16 | Cc1ccc(C2CCN(C(=O)N[C@H](Cc3cc(C)c4[nH]ncc4c3)C(=O)N3CCC(N4CCCCC4)CC3)CC2)c(Cl)c1
26 | 33 | Cc1cc(C[C@@H](NC(=O)N2CCN(c3ccc(Br)cc3)CC2)C(=O)N2CCC(N3CCCCC3)CC2)cc2cn[nH]c12
27 | 44 | Cc1cc(C[C@@H](NC(=O)N2CCN(c3ccccc3)CC2)C(=O)N2CCC(N3CCCCC3)CC2)cc2cn[nH]c12
28 | 150 | Cc1cc(C[C@@H](NC(=O)N2CCC(c3cccc(Cl)c3)CC2)C(=O)N2CCC(N3CCCCC3)CC2)cc2cn[nH]c12
29 | 460 | Cc1cc(C[C@@H](NC(=O)N2CCC(c3ccccc3)CC2)C(=O)N2CCC(N3CCCCC3)CC2)cc2cn[nH]c12
30 | 13 | Cc1cc(C[C@@H](NC(=O)N2CCC(c3ccc(Br)cc3)CC2)C(=O)N2CCC(N3CCCCC3)CC2)cc2cn[nH]c12
31 | 12 | Cc1cc(C[C@@H](NC(=O)N2CCN(c3ccccc3Br)CC2)C(=O)N2CCC(N3CCCCC3)CC2)cc2cn[nH]c12
32 | 92 | Cc1cc(C[C@@H](NC(=O)N2CCC(c3ccc(F)cc3F)CC2)C(=O)N2CCC(N3CCCCC3)CC2)cc2cn[nH]c12
33 | 430 | Cc1cc(C[C@@H](NC(=O)N2CCC(c3cccc4ccccc34)CC2)C(=O)N2CCC(N3CCCCC3)CC2)cc2cn[nH]c12

Test system: CGRP receptor (CALCRL/RAMP1) (Homo sapiens)
Test: Antagonist activity at CGRP receptor (unknown origin)
Conditions: not given

Row | Structure (SMILES) | Activity
34 | Cc1cc(C[C@@H](NC(=O)N2CCC(c3cc4ccccc4cc3Cl)CC2)C(=O)N2CCC(N3CCCCC3)CC2)cc2cn[nH]c12 | Active
35 | Cc1cc(C[C@@H](NC(=O)N2CCC(c3ccc(Cl)cc3Cl)CC2)C(=O)N2CCC(N3CCCCC3)CC2)cc2cn[nH]c12 | Active
36 | Cc1cc(C[C@@H](NC(=O)N2CCN(c3ccc(Cl)cc3Cl)CC2)C(=O)N2CCC(N3CCCCC3)CC2)cc2cn[nH]c12 | Active

The next lines start with the values.

Row | Activity | Structure (SMILES)
37 | Active | Cc1cc(C[C@@H](NC(=O)N2CCN(c3cccc(Cl)c3)CC2)C(=O)N2CCC(N3CCCCC3)CC2)cc2cn[nH]c12
38 | Active | Cc1ccc(C2CCN(C(=O)N[C@H](Cc3cc(C)c4[nH]ncc4c3)C(=O)N3CCC(N4CCCCC4)CC3)CC2)c(Cl)c1
39 | Active | Cc1cc(C[C@@H](NC(=O)N2CCN(c3ccc(Br)cc3)CC2)C(=O)N2CCC(N3CCCCC3)CC2)cc2cn[nH]c12
40 | Active | Cc1cc(C[C@@H](NC(=O)N2CCN(c3ccccc3Br)CC2)C(=O)N2CCC(N3CCCCC3)CC2)cc2cn[nH]c12

Test system: not listed separately
Test: Permeability of compound across apical to basolateral side in human Caco2 cells
Assay type: ADME, cell-based
Conditions: Caco-2, read-out: permeability

Row | Structure (SMILES) | Papp A→B [×10⁻⁶ cm/s]
41 | Cc1cc(C[C@@H](NC(=O)N2CCC(c3cc4ccccc4cc3Cl)CC2)C(=O)N2CCC(N3CCCCC3)CC2)cc2cn[nH]c12 | < 1.5
42 | Cc1cc(C[C@@H](NC(=O)N2CCC(c3ccc(Cl)cc3Cl)CC2)C(=O)N2CCC(N3CCCCC3)CC2)cc2cn[nH]c12 | < 1.5
43 | Cc1cc(C[C@@H](NC(=O)N2CCC(N3Cc4cccc(F)c4NC3=O)CC2)C(=O)N2CCC(N3CCCCC3)CC2)cc2cn[nH]c12 | < 1.5
44 | Cc1cc(C[C@@H](NC(=O)N2CCN(c3ccc(Cl)cc3Cl)CC2)C(=O)N2CCC(N3CCCCC3)CC2)cc2cn[nH]c12 | < 1.5
45 | Cc1cc(C[C@@H](NC(=O)N2CCC(c3ccc4ccccc4c3)CC2)C(=O)N2CCC(N3CCCCC3)CC2)cc2cn[nH]c12 | < 1.5

The next lines start with the values.

Row | Papp A→B [×10⁻⁶ cm/s] | Structure (SMILES)
46 | < 1.5 | Cc1cc(C[C@@H](NC(=O)N2CCC(c3ccc(C(F)(F)F)cc3C(F)(F)F)CC2)C(=O)N2CCC(N3CCCCC3)CC2)cc2cn[nH]c12
47 | < 1.5 | Cc1ccc(C2CCN(C(=O)N[C@H](Cc3cc(C)c4[nH]ncc4c3)C(=O)N3CCC(N4CCCCC4)CC3)CC2)c(Cl)c1
48 | < 1.5 | Cc1cc(C[C@@H](NC(=O)N2CCN(c3ccc(Br)cc3)CC2)C(=O)N2CCC(N3CCCCC3)CC2)cc2cn[nH]c12
49 | 5.6 | Cc1cc(C[C@@H](NC(=O)N2CCN(c3ccccc3Br)CC2)C(=O)N2CCC(N3CCCCC3)CC2)cc2cn[nH]c12

Test system: not listed separately
Test: Permeability of compound by PAMPA
Assay type: ADME
Conditions: read-out: permeability

Row | Structure (SMILES) | Papp [×10⁻⁶ cm/s]
50 | Cc1cc(C[C@@H](NC(=O)N2CCC(c3cc4ccccc4cc3Cl)CC2)C(=O)N2CCC(N3CCCCC3)CC2)cc2cn[nH]c12 | 5.7
51 | Cc1cc(C[C@@H](NC(=O)N2CCC(c3ccc(Cl)cc3Cl)CC2)C(=O)N2CCC(N3CCCCC3)CC2)cc2cn[nH]c12 | 2.4
52 | Cc1cc(C[C@@H](NC(=O)N2CCN(c3ccc(Cl)cc3Cl)CC2)C(=O)N2CCC(N3CCCCC3)CC2)cc2cn[nH]c12 | 17
53 | Cc1cc(C[C@@H](NC(=O)N2CCC(c3ccc4ccccc4c3)CC2)C(=O)N2CCC(N3CCCCC3)CC2)cc2cn[nH]c12 | 6.1

The remaining lines, values ahead:

Row | Papp [×10⁻⁶ cm/s] | Structure (SMILES)
54 | 7.1 | Cc1cc(C[C@@H](NC(=O)N2CCC(c3ccc(C(F)(F)F)cc3C(F)(F)F)CC2)C(=O)N2CCC(N3CCCCC3)CC2)cc2cn[nH]c12
55 | 5.2 | Cc1cc(C[C@@H](NC(=O)N2CCN(c3cccc(Cl)c3)CC2)C(=O)N2CCC(N3CCCCC3)CC2)cc2cn[nH]c12
56 | 12 | Cc1ccc(C2CCN(C(=O)N[C@H](Cc3cc(C)c4[nH]ncc4c3)C(=O)N3CCC(N4CCCCC4)CC3)CC2)c(Cl)c1
57 | 5.2 | Cc1cc(C[C@@H](NC(=O)N2CCN(c3ccc(Br)cc3)CC2)C(=O)N2CCC(N3CCCCC3)CC2)cc2cn[nH]c12
58 | 3.5 | Cc1cc(C[C@@H](NC(=O)N2CCN(c3ccccc3Br)CC2)C(=O)N2CCC(N3CCCCC3)CC2)cc2cn[nH]c12
